Data from patent US10399988B2, “4-aminopyrazolo[3,4-d]pyrimidinylazabicyclo derivatives and pharmaceutical composition comprising the same” (Daewoong Pharmaceutical Co., Ltd., priority 2016, dated 2019).
pIC50: −log10 of the molar value.

Experiments:
[1] = target: T1, ITK (Homo sapiens, UniProt Q08881); assay: Inhibitory activity against ITK (ADP-Glo + ITK Kinase enzyme system kit); selectivity BTK vs. ITK; type: biochemical; conditions: for pIC50: ITK enzyme 0.4 ng/uL, ATP 25 uM, luminescence, duplicate; for Selectivity (based on IC50): selectivity for the inhibitory activity of BTK vs. ITK, Equation 1
T1 construct: purchased Promega Corporation
T1 sequence (Q08881 1-620): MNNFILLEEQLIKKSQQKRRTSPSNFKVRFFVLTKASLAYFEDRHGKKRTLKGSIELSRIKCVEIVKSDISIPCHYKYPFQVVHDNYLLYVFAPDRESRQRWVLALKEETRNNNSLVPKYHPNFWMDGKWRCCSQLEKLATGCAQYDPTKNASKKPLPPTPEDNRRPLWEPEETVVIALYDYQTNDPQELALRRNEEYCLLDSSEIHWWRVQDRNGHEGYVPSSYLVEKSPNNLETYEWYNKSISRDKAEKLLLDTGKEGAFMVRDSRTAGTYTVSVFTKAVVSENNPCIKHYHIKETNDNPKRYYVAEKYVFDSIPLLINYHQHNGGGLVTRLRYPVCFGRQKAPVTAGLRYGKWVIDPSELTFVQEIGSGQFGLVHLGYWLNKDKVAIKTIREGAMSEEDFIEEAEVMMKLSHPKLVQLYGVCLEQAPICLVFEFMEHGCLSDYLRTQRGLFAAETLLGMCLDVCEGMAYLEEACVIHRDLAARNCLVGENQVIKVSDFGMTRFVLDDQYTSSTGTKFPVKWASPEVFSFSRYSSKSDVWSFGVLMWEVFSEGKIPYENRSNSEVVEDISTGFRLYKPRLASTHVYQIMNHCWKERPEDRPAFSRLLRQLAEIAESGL

[2] = target: BTK (Homo sapiens, UniProt Q06187); assay: Inhibitory activity against BTK (ADP-Glo + BTK Kinase enzyme system kit)
Chain of BTK (Q06187 whole entry): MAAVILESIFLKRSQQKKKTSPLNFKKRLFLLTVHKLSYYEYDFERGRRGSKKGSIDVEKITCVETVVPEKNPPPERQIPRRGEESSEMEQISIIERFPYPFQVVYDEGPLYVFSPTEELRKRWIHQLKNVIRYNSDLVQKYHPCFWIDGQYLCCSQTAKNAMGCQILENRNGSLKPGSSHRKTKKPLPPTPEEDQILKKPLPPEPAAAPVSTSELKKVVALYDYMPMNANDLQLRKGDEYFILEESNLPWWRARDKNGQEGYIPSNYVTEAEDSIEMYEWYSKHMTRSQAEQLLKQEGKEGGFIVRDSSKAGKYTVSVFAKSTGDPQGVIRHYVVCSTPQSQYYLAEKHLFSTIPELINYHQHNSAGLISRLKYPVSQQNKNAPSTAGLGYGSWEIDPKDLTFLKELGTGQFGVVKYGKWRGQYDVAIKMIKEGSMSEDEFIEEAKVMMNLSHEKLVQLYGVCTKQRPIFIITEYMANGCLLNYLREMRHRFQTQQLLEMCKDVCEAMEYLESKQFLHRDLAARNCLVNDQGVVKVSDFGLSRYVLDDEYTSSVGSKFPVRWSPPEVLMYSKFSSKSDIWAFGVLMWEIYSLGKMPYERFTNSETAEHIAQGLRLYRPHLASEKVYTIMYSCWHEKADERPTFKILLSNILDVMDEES

Row | pIC50 [1] | Selectivity (based on IC50) [1] | pIC50 [2] | SMILES
1 | 7.49 | 26.8 | 8.92 | C=CC(=O)N1C[C@@H]2C[C@H]1[C@@H](n1nc(-c3ccc(C(=O)Nc4ccccn4)cc3Cl)c3c(N)ncnc31)C2 [Ex. 80, 4-(1-((1S,4R,6S)-2-acryloyl-2-azabicyclo[2.2.1]heptan-6-yl)-4-amino-1H-pyrazolo[3,4-d]pyrimidin-3-yl)-3-chloro-N-(pyridin-2-yl)benzamide]
2 | < 6.70 | >200 | 9.00 | C=CC(=O)N1C[C@@H]2C[C@H]1[C@@H](n1nc(-c3ccc(C(=O)Nc4ccccn4)cc3OC)c3c(N)ncnc31)C2 [Ex. 81, 4-(1-((1S,4R,6S)-2-acryloyl-2-azabicyclo[2.2.1]heptan-6-yl)-4-amino-1H-pyrazolo[3,4-d]pyrimidin-3-yl)-3-methoxy-N-(pyridin-2-yl)benzamide]
3 | < 6.70 | 55.6 | 8.44 | N#CC(=CC1CC1)C(=O)N1C[C@@H]2C[C@@H]1[C@@H](n1nc(-c3ccc(C(=O)Nc4ccccn4)cc3F)c3c(N)ncnc31)C2 [Ex. 82, 4-(4-amino-1-((1R,4R,6S)-2-(2-cyano-3-cyclopropylacryloyl)-2-azabicyclo[2.2.1]heptan-6-yl)-1H-pyrazolo[3,4-d]pyrimidin-3-yl)-3-fluoro-N-(pyridin-2-yl)benzamide]
4 | 6.64 | 81.7 | 8.55 | N#CC(=CC1CC1)C(=O)N1C[C@@H]2C[C@@H]1[C@@H](n1nc(-c3ccc(C(=O)Nc4cc(F)ccn4)cc3F)c3c(N)ncnc31)C2 [Ex. 83, 4-(4-amino-1-((1R,4R,6S)-2-(2-cyano-3-cyclopropylacryloyl)-2-azabicyclo[2.2.1]heptan-6-yl)-1H-pyrazolo[3,4-d]pyrimidin-3-yl)-3-fluoro-N-(4-fluoropyridin-2-yl)benzamide]
5 | 7.22 | 37.9 | 8.80 | C=CC(=O)N1C[C@@H]2C[C@@H]1[C@@H](n1nc(-c3ccc(C(=O)Nc4ccccn4)cc3F)c3c(N)ncnc31)C2 [Ex. 85, 4-(1-((1R,4R,6S)-2-acryloyl-2-azabicyclo[2.2.1]heptan-6-yl)-4-amino-1H-pyrazolo[3,4-d]pyrimidin-3-yl)-3-fluoro-N-(pyridin-2-yl)benzamide]
